Laboratory results taken from ChEMBL document CHEMBL3856212, “Synthesis, anti-proliferative and genotoxicity studies of 6-chloro-5-(2-substituted-ethyl)-1,3-dihydro-2H-indol-2-ones and 6-chloro-5-(2-chloroethyl)-3-(alkyl/ary-2-ylidene)indolin-2-ones” (Eur J Med Chem, 2016).

Experiments:
[1] = Cytotoxicity against human MCF7 cells assessed as assessed as growth inhibition at 10^-5 M after 48 hrs by SRB assay relative to control; assay type: functional; conditions: MCF7, 48 h, read-out: GI
[2] = Cytotoxicity against human HCC2998 cells assessed as growth inhibition after 48 hrs by SRB assay; assay type: functional; conditions: HCC 2998, 48 h
[3] = Cytotoxicity against human HT-29 cells assessed as assessed as growth inhibition at 10^-5 M after 48 hrs by SRB assay relative to control; assay type: functional; conditions: HT-29, 48 h, read-out: GI
[4] = Cytotoxicity against human ACHN cells assessed as assessed as growth inhibition at 10^-5 M after 48 hrs by SRB assay relative to control; assay type: functional; conditions: read-out: GI
[5] = Cytotoxicity against human HCT116 cells assessed as assessed as growth inhibition at 10^-5 M after 48 hrs by SRB assay relative to control; assay type: functional; conditions: HCT-116, 48 h, read-out: GI
[6] = Cytotoxicity against human U251 cells assessed as assessed as growth inhibition at 10^-5 M after 48 hrs by SRB assay relative to control; assay type: functional; conditions: U-251, 48 h, read-out: GI
[7] = Cytotoxicity against human MDA-MB-231 cells assessed as assessed as growth inhibition at 10^-5 M after 48 hrs by SRB assay relative to control; assay type: functional; conditions: MDA-MB-231, 48 h, read-out: GI
[8] = Induction of apoptosis in mouse EAC cells at 375 uM after 24 hrs by acridine orange dye-based fluorescence microscopy (reference value: 0.66 +/- 0.33%); assay type: cell-based; conditions: ehrlich
[9] = Cytotoxicity against human SNB75 cells assessed as assessed as growth inhibition at 10^-5 M after 48 hrs by SRB assay relative to control; assay type: functional; conditions: SNB-75, 48 h, read-out: GI
[10] = Cytotoxicity against human SK-MEL-2 cells assessed as assessed as growth inhibition at 10^-5 M after 48 hrs by SRB assay relative to control; assay type: functional; conditions: SK-MEL-2, 48 h, read-out: GI
[11] = Cytotoxicity against human HOP62 cells assessed as growth inhibition after 48 hrs by SRB assay; assay type: functional; conditions: HOP-62, 48 h
Mus musculus [12] = species on record: Mus musculus; test: Genotoxicity in mouse EAC cells at 250 uM after 24 hrs by micronucleus assay (reference value: 3.5 +/- 0.30%); assay type: toxicity, cell-based; conditions: ehrlich
[13] = Cytotoxicity against human NCI-H460 cells assessed as assessed as growth inhibition at 10^-5 M after 48 hrs by SRB assay relative to control; assay type: functional; conditions: NCI-H460, 48 h, read-out: GI
[14] = Cytotoxicity against human SNB19 cells assessed as growth inhibition after 48 hrs by SRB assay; assay type: functional; conditions: SNB-19, 48 h
[15] = Cytotoxicity against human SKOV3 cells assessed as growth inhibition after 48 hrs by SRB assay; assay type: functional; conditions: SK-OV-3, 48 h
[16] = Cytotoxicity against human HCC2998 cells assessed as assessed as growth inhibition at 10^-5 M after 48 hrs by SRB assay relative to control; assay type: functional; conditions: HCC 2998, 48 h, read-out: GI
[17] = Cytotoxicity against human HOP62 cells assessed as assessed as growth inhibition at 10^-5 M after 48 hrs by SRB assay relative to control; assay type: functional; conditions: HOP-62, 48 h, read-out: GI
[18] = Cytotoxicity against human SNB75 cells assessed as growth inhibition after 48 hrs by SRB assay; assay type: functional; conditions: SNB-75, 48 h
[19] = Cytotoxicity against human NCI-ADR-RES cells assessed as growth inhibition after 48 hrs by SRB assay; assay type: functional
[20] = Cytotoxicity against human MDA-MB-231 cells assessed as growth inhibition after 48 hrs by SRB assay; assay type: functional; conditions: MDA-MB-231, 48 h
[21] = Cytotoxicity against human BT549 cells assessed as growth inhibition after 48 hrs by SRB assay; assay type: functional; conditions: BT-549, 48 h
[22] = Cytotoxicity against human LOXIMVI cells assessed as growth inhibition after 48 hrs by SRB assay; assay type: functional; conditions: LOX IMVI
[23] = Cytotoxicity against human TK10 cells assessed as assessed as growth inhibition at 10^-5 M after 48 hrs by SRB assay relative to control; assay type: functional; conditions: TK-10, 48 h, read-out: GI
[24] = Cytotoxicity against human MALME-3M cells assessed as assessed as growth inhibition at 10^-5 M after 48 hrs by SRB assay relative to control; assay type: functional; conditions: read-out: GI
[25] = Cytotoxicity against human KM12 cells assessed as assessed as growth inhibition at 10^-5 M after 48 hrs by SRB assay relative to control; assay type: functional; conditions: KM12, 48 h, read-out: GI
[26] = Cytotoxicity against human Caki1 cells assessed as assessed as growth inhibition at 10^-5 M after 48 hrs by SRB assay relative to control; assay type: functional; conditions: CAKI-1, 48 h, read-out: GI
[27] = Cytotoxicity against human MDA-MB-435 cells assessed as growth inhibition after 48 hrs by SRB assay; assay type: functional; conditions: MDA-MB-435, 48 h, read-out: LD50 (the source's name)
Mus musculus [28] = species on record: Mus musculus; test: Genotoxicity in mouse EAC cells at 500 uM after 24 hrs by micronucleus assay (reference value: 3.5 +/- 0.30%); assay type: toxicity, cell-based; conditions: ehrlich
[29] = Cytotoxicity against human NCI-H460 cells assessed as growth inhibition after 48 hrs by SRB assay; assay type: functional; conditions: NCI-H460, 48 h
[30] = Cytotoxicity against human SKOV3 cells assessed as assessed as growth inhibition at 10^-5 M after 48 hrs by SRB assay relative to control; assay type: functional; conditions: SK-OV-3, 48 h, read-out: GI
Mus musculus [31] = species on record: Mus musculus; test: Genotoxicity in mouse EAC cells at 375 uM after 24 hrs by micronucleus assay (reference value: 3.5 +/- 0.30%); assay type: toxicity, cell-based; conditions: ehrlich
[32] = Cytotoxicity against human UACC257 cells assessed as assessed as growth inhibition at 10^-5 M after 48 hrs by SRB assay relative to control; assay type: functional; conditions: UACC-257, 48 h, read-out: GI
[33] = Cytotoxicity against human NCI-H23 cells assessed as assessed as growth inhibition at 10^-5 M after 48 hrs by SRB assay relative to control; assay type: functional; conditions: NCI-H23, 48 h, read-out: GI
[34] = Cytotoxicity against human UACC257 cells assessed as growth inhibition after 48 hrs by SRB assay; assay type: functional; conditions: UACC-257, 48 h
[35] = read-out: LD50 (the source's name)

Compound: O=C1Cc2cc(CCN3CCNCC3)c(Cl)cc2N1
- inhibition of growth at 10 µM [1]: 74.9%
- GI50 [2]: 4660 nM
- TGI [2]: > 1000 nM
- CC50 [2, 35]: > 1000 nM
- inhibition of growth at 10 µM [3]: 11.9%
- inhibition of growth at 10 µM [4]: 35.5%
- inhibition of growth at 10 µM [5]: 34.8%
- inhibition of growth at 10 µM [6]: 43%
- inhibition of growth at 10 µM [7]: 64.1%
- Activity [8]: 1.33%
- inhibition of growth at 10 µM [9]: 38.6%
- inhibition of growth at 10 µM [10]: 53.9%
- GI50 [11]: 1930 nM
- TGI [11]: > 1000 nM
- CC50 [11, 35]: > 1000 nM
- Activity (Mus musculus [12]): 4.43%
- inhibition of growth at 10 µM [13]: 25.7%
- GI50 [14]: 2370 nM
- TGI [14]: > 1000 nM
- CC50 [14, 35]: > 1000 nM
- GI50 [15]: 1000 nM
- TGI [15]: > 1000 nM
- CC50 [15, 35]: > 1000 nM
- inhibition of growth at 10 µM [16]: 24.3%
- inhibition of growth at 10 µM [17]: 43.7%
- GI50 [18]: 1560 nM
- TGI [18]: 7540 nM
- CC50 [18, 35]: > 1000 nM
- GI50 [19]: 5110 nM
- TGI [19]: > 1000 nM
- CC50 [19, 35]: > 1000 nM
- GI50 [20]: 3900 nM
- TGI [20]: > 1000 nM
- CC50 [20, 35]: > 1000 nM
- GI50 [21]: 8180 nM
- TGI [21]: > 1000 nM
- CC50 [21, 35]: > 1000 nM
- GI50 [22]: 1000 nM
- TGI [22]: > 1000 nM
- CC50 [22, 35]: > 1000 nM
- inhibition of growth at 10 µM [23]: 10.9%
- inhibition of growth at 10 µM [24]: 19.6%
- inhibition of growth at 10 µM [25]: 70.4%
- inhibition of growth at 10 µM [26]: 37.2%
- CC50 [27]: > 1000 nM
- Activity (Mus musculus [28]): 6.26%
- GI50 [29]: 2290 nM
- TGI [29]: > 1000 nM
- CC50 [29, 35]: > 1000 nM
- inhibition of growth at 10 µM [30]: 33.2%
- Activity (Mus musculus [31]): 6.33%
- inhibition of growth at 10 µM [32]: 48%
- inhibition of growth at 10 µM [33]: 77.2%
- GI50 [34]: 6520 nM
- TGI [34]: > 1000 nM
- CC50 [34, 35]: > 1000 nM
